What was measured:
[1] = Terminal half life in human; assay type: ADME; settings: read-out: beta t1/2 (converted)
[2] = Cmax in human plasma; assay type: ADME, cell-free
[3] = AUC (0 to 24 hrs) in human at 40 mg, po by LC-MS/MS analysis; settings: in vivo
[4] = target: Prostaglandin G/H synthase 1 (Homo sapiens, UniProt P23219); test: Inhibition of COX1 (unknown origin)
[5] = target: T1, Prostaglandin G/H synthase 2 (Homo sapiens, UniProt P35354); test: Inhibition of COX-2 (unknown origin) using arachidonic acid as substrate preincubated for 15 mins followed by substrate addition by colorimetric assay
T1 sequence (P35354 whole entry): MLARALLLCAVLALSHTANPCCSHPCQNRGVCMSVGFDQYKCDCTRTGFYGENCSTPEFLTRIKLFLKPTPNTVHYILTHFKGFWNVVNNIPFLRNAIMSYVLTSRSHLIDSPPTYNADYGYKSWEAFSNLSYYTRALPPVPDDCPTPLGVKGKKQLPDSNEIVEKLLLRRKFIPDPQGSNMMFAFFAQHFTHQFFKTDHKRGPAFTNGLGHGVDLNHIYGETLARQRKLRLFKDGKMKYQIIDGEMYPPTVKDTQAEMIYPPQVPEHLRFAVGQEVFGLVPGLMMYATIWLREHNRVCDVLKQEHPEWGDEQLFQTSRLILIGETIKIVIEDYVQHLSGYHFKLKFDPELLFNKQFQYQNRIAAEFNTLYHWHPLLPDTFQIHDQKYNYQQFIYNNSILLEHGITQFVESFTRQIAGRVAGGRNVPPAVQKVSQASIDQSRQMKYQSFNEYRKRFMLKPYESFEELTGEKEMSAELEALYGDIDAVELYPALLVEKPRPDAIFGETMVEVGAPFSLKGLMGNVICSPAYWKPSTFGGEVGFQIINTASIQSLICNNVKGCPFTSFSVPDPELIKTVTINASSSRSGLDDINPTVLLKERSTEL

[6] = Half life of compound in PBS buffer; assay type: physicochemical
[7] = target: Beta-2 adrenergic receptor (Homo sapiens, UniProt P07550); test: Binding affinity to human beta 2 adrenergic receptor assessed as inhibition constant
Sequence of Beta-2 adrenergic receptor (P07550 whole entry): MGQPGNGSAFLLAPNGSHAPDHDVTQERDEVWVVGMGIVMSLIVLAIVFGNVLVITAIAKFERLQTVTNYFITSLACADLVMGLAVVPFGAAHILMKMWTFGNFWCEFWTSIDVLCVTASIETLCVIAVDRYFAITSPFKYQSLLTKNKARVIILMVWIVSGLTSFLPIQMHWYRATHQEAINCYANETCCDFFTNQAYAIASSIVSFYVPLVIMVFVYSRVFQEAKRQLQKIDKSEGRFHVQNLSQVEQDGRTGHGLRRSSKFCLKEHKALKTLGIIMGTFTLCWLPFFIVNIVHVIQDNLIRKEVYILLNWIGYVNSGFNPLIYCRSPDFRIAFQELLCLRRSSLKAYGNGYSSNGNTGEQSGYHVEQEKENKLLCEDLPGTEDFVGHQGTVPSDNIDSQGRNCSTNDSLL

Half life in human = settings: in vivo
[8] = Volume of distribution in human; assay type: ADME
[9] = Oral bioavailability in mouse; assay type: ADME, organism-based; settings: in vivo
[10] = target: 5-hydroxytryptamine receptor 2B (Homo sapiens, UniProt P41595); test: Binding affinity to 5-HT2B receptor (unknown origin) assessed as inhibition constant
Sequence of 5-hydroxytryptamine receptor 2B (P41595 whole entry): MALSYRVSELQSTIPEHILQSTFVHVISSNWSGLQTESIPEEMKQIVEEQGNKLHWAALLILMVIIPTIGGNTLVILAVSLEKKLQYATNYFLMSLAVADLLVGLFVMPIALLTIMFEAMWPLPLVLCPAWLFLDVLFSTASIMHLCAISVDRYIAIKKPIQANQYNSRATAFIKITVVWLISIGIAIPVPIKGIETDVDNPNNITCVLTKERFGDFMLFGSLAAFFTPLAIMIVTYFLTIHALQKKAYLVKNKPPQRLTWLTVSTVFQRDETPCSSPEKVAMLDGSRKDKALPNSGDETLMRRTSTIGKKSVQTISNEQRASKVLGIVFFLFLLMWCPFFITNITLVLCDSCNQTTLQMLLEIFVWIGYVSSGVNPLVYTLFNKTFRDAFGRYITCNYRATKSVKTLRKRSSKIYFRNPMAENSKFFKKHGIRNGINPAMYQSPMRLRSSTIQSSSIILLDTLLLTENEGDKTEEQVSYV

[11] = Oral bioavailability in human; assay type: ADME, organism-based; settings: in vivo
[12] = Elimination half life in human; assay type: ADME; settings: read-out: beta t1/2 (converted)
[13] = Volume of distribution in Wistar rat; assay type: ADME; settings: in vivo
[14] = Apparent oral clearance in human
[15] = Binding affinity to MT1 receptor (unknown origin) assessed as inhibition constant; set-up: species or system Homo sapiens
[16] = Apparent oral clearance in human at 1 mg, po by LC-MS/MS analysis; assay type: ADME, organism-based; settings: in vivo
[17] = Terminal half life in human at 10 mg/kg, iv; settings: in vivo, read-out: beta t1/2 (converted)
[18] = Terminal half life in iv dosed mouse; assay type: ADME, organism-based; settings: in vivo, read-out: beta t1/2 (converted)
[19] = Plasma clearance in iv dosed C57BL/6J mouse; assay type: ADME, organism-based
[20] = Tmax in human; assay type: ADME
[21] = Half life in human; assay type: ADME
[22] = Elimination half life in rat; assay type: ADME; settings: in vivo, read-out: beta t1/2 (converted)
[23] = Plasma clearance in iv dosed human; settings: in vivo
[24] = Volume of distribution at steady state in human; settings: in vivo, read-out: Vdss
[25] = Plasma clearance in iv dosed human
[26] = Volume of distribution at steady state in iv dosed human; settings: in vivo, read-out: Vdss
[27] = Apparent oral clearance in human at 100 mg, po by LC-MS/MS analysis; assay type: ADME, organism-based; settings: in vivo
[28] = target: 5-hydroxytryptamine receptor 1B (Homo sapiens, UniProt P28222); test: Binding affinity to 5-HT1B receptor (unknown origin) assessed as inhibition constant
Sequence of 5-hydroxytryptamine receptor 1B (P28222 whole entry): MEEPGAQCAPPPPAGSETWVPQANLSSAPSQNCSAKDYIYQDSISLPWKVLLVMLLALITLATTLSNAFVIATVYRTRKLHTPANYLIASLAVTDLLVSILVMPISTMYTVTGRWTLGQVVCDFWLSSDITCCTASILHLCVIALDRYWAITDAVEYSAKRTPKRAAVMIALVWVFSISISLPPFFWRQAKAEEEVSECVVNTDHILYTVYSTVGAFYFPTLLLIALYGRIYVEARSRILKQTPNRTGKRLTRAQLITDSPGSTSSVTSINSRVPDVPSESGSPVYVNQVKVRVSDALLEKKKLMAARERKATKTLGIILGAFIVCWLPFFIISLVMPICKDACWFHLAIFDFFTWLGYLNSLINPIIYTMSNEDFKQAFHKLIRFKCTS

[29] = target: 5-hydroxytryptamine receptor 1D (Homo sapiens, UniProt P28221); test: Binding affinity to 5-HT1DR (unknown origin) assessed as inhibition constant
Sequence of 5-hydroxytryptamine receptor 1D (P28221 whole entry): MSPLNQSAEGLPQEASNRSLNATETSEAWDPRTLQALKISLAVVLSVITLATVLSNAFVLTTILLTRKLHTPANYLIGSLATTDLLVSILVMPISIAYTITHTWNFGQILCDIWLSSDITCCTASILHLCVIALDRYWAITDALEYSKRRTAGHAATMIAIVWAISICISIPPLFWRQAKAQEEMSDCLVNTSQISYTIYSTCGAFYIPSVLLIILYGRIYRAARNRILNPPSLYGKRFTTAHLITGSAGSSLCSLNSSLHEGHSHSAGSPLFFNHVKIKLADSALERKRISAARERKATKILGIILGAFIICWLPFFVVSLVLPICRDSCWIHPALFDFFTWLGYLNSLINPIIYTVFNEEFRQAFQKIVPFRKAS

[30] = Half life in human plasma; assay type: ADME, cell-free
[31] = Elimination half life in human at 7.5 to 100 mg; assay type: ADME; settings: dose 7.5-100 mg, read-out: beta t1/2 (converted)
[32] = AUC in ICR mouse; assay type: ADME; settings: in vivo
[33] = Volume of distribution in human at 80 to 100 mg; assay type: ADME; settings: dose 80-100 mg
[34] = Binding affinity to 5-HT3R (unknown origin) assessed as inhibition constant; set-up: species or system Homo sapiens
D(1A) dopamine receptor = D(1A) dopamine receptor (Homo sapiens, UniProt P21728); test: Binding affinity to dopamine D1 receptor (unknown origin) assessed as inhibition constant
Sequence of D(1A) dopamine receptor (P21728 whole entry): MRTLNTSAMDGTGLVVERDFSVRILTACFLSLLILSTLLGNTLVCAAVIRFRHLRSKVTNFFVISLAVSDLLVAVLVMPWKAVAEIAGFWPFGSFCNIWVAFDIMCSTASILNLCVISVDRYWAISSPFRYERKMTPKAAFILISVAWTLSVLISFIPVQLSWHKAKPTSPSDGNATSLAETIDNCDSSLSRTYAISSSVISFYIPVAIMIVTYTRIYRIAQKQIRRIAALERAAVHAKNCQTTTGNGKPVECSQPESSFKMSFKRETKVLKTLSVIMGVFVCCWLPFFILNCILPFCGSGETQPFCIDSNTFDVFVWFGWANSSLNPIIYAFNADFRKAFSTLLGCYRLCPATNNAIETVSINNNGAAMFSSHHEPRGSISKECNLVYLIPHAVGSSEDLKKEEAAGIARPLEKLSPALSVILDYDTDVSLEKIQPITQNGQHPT

Dopamine receptor = test: Inhibition of dopamine receptor (unknown origin); assay type: protein assay, Homo sapiens
[35] = Apparent oral renal clearance in human; assay type: ADME; settings: read-out: CL(app)
[36] = Volume of distribution in human at 2.5 mg; assay type: ADME
[37] = Cmax in human at 4 mg, po; assay type: ADME; set-up: dose 4 mg, route po; settings: in vivo
[38] = Tmax in human plasma; assay type: ADME, cell-free
[39] = Initial half life in iv dosed mouse; settings: in vivo, read-out: beta t1/2
[40] = Blood clearance in Wistar rat at 0.3 mg/kg, iv; assay type: ADME, organism-based

Sequence of Prostaglandin G/H synthase 1 (P23219 whole entry): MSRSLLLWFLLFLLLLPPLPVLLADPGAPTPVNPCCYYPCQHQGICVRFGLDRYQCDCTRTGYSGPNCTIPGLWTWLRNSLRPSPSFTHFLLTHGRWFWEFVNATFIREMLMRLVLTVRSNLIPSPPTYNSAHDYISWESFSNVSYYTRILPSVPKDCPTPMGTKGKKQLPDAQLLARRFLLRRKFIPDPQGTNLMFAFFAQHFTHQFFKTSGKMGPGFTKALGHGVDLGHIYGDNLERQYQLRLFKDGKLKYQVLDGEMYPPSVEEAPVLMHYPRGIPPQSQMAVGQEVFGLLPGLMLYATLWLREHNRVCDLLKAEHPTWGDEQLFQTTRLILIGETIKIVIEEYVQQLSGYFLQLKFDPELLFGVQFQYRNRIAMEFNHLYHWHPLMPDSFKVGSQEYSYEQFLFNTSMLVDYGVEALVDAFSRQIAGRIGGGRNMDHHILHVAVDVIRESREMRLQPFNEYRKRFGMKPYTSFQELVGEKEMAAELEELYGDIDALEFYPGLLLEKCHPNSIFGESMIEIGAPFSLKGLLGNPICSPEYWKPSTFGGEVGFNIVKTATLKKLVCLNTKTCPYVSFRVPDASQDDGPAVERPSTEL

N#Cc1ccc2[nH]cc(CCCCN3CCN(c4ccc5oc(C(N)=O)cc5c4)CC3)c2c1 [VILAZODONE]
half-life [1]: 25 h | Cmax [2]: 156 ng/mL | AUC [3]: 1640 ng·h/mL

COc1ccc2c(c1)c(CC(=O)OCC(=O)O)c(C)n2C(=O)c1ccc(Cl)cc1 [ACEMETACIN]
IC50 [4]: 10 nM | IC50 [5]: 10 nM | half-life [6]: 4.5 h

CC(C)[C@@]1(NC(=O)[C@@H]2C[C@@H]3c4cccc5[nH]cc(c45)C[C@H]3N(C)C2)O[C@@]2(O)[C@@H]3CCCN3C(=O)[C@H](Cc3ccccc3)N2C1=O [DIHYDROERGOCRISTINE]
Ki [7]: 2.4 nM | half-life (Half life in human): 3.5 h

O=C(O[C@@H]1C[C@@H]2C[C@H]3C[C@H](C1)N2CC3=O)c1c[nH]c2ccccc12 [DOLASETRON]
Vd [8]: 5.8 L/kg

CCCN1C[C@H](CSC)C[C@@H]2c3cccc4[nH]cc(c34)C[C@H]21 [PERGOLIDE]
bioavailability [9]: 55%

Cc1nccn1CC1CCc2c(c3ccccc3n2C)C1=O (stereo unspecified) [ONDANSETRON]
Ki [10]: 2.5 nM | bioavailability [11]: 56% | half-life [12]: 3.1 h

CCc1cc2c(cc1N1CCC(N3CCOCC3)CC1)C(C)(C)c1[nH]c3cc(C#N)ccc3c1C2=O [ALECTINIB]
Vd [13]: 4020 L | CL/F [14]: 1370 mL/min

CN1CC(=O)N2[C@H](c3ccc4c(c3)OCO4)c3[nH]c4ccccc4c3C[C@@H]2C1=O
Ki [15]: 1.2 nM | CL/F [16]: 41.7 mL/min | half-life [17]: 17.5 h

COc1ccccc1OCCNCC(O)COc1cccc2[nH]c3ccccc3c12 (stereo unspecified) [CARVEDILOL]
half-life (Half life in human): 7 h

CC[C@]1(O)C[C@@H]2CN(CCc3c([nH]c4ccccc34)[C@@](C(=O)OC)(c3cc4c(cc3OC)N(C)[C@H]3[C@@](O)(C(=O)OC)[C@H](OC(C)=O)[C@]5(CC)C=CCN6CC[C@]43[C@@H]65)C2)C1 [VINBLASTINE]
half-life [18]: 1.6 h

COc1ccc2[nH]c3c(c2c1)CCN[C@]31CS[C@@H]2c3c(OC(C)=O)c(C)c4c(c3[C@@H](COC1=O)N1[C@@H]2[C@H]2c3c(cc(C)c(OC)c3O)C[C@@H]([C@@H]1O)N2C)OCO4
half-life [1]: 51 h | Cmax [2]: 107000 ng/mL | clearance [19]: 183 mL/min

CC(C(=O)O)c1ccc2c(c1)[nH]c1ccc(Cl)cc12 (stereo unspecified) [CARPROFEN]
Tmax [20]: 1 h | half-life [21]: 8 h

COc1ccc2c(c1)c(CC(=O)O)c(C)n2C(=O)c1ccc(Cl)cc1 [INDOMETHACIN]
half-life [22]: 7 h

CCC1=C[C@@H]2CN(C1)Cc1c([nH]c3ccccc13)[C@@](C(=O)OC)(c1cc3c(cc1OC)N(C)[C@H]1[C@@](O)(C(=O)OC)[C@H](OC(C)=O)[C@]4(CC)C=CCN5CC[C@]31[C@@H]54)C2 [VINORELBINE]
half-life [18]: 24.8 h | clearance [23]: 16.2 mL/min/kg | half-life [17]: 27.7 h | Vd [24]: 25.4 L/kg

COc1ccc2[nH]cc(CCNC(C)=O)c2c1 [MELATONIN]
half-life [12]: 1 h | Ki [15]: 0.05 nM

CCCCCNC(=N)N/N=C/c1c[nH]c2ccc(OC)cc12 [TEGASEROD]
clearance [25]: 1280 mL/min | half-life [17]: 11 h | Vd [26]: 368 L

COc1cc(C(=O)NS(=O)(=O)c2ccccc2C)ccc1Cc1cn(C)c2ccc(NC(=O)OC3CCCC3)cc12 [ZAFIRLUKAST]
CL/F [27]: 333 mL/min

CC(C)n1c(/C=C/C(O)CC(O)CC(=O)O)c(-c2ccc(F)cc2)c2ccccc21 (stereo unspecified) [FLUVASTATIN]
Vd [8]: 0.35 L/kg

CN1C[C@H](C(=O)N[C@]2(C)O[C@@]3(O)[C@@H]4CCCN4C(=O)[C@H](Cc4ccccc4)N3C2=O)C[C@@H]2c3cccc4[nH]cc(c34)C[C@H]21 [DIHYDROERGOTAMINE]
Ki [10]: 3.7 nM | half-life [18]: 9 h

CN(C)CCc1c[nH]c2ccc(C[C@H]3COC(=O)N3)cc12 [ZOLMITRIPTAN]
Ki [28]: 0.4 nM | Ki [29]: 0.4 nM

CN1[C@@H]2CC[C@H]1C[C@@H](OC(=O)c1c[nH]c3ccccc13)C2 [TROPISETRON]
bioavailability [11]: 60% | half-life [30]: 5 h

CC(C)C[C@H]1C(=O)N2CCC[C@H]2[C@]2(O)O[C@](NC(=O)[C@@H]3C=C4c5cccc6[nH]c(Br)c(c56)C[C@H]4N(C)C3)(C(C)C)C(=O)N12 [BROMOCRIPTINE]
half-life [31]: 4.85 h | bioavailability [9]: 90% | AUC [32]: 2.38 ng·h/mL

CC[C@@H](CO)NC(=O)[C@@H]1C=C2c3cccc4[nH]cc(c34)C[C@H]2N(C)C1 [METHYLERGONOVINE]
bioavailability [11]: 40% | Vd [33]: 2.4 L/kg | half-life (Half life in human): 2.5 h

CC(C)NCC(O)COc1cccc2[nH]ccc12 (stereo unspecified) [PINDOLOL]
Tmax [20]: 1 h | Vd [33]: 2 L/kg | half-life (Half life in human): 3 h

CO[C@@H]1[C@H](N(C)C(=O)c2ccccc2)C[C@H]2O[C@]1(C)n1c3ccccc3c3c4c(c5c6ccccc6n2c5c31)C(=O)NC4 [MIDOSTAURIN]
Vd [8]: 95.2 L | half-life [30]: 21 h

Cc1[nH]cnc1CN1CCc2c(c3ccccc3n2C)C1=O [ALOSETRON]
Ki [34]: 0.5 nM | bioavailability [11]: 50% | half-life [12]: 1.5 h | clearance [25]: 600 mL/min | Vd [26]: 65 L

CNS(=O)(=O)CCc1ccc2[nH]cc(C3CCN(C)CC3)c2c1
Ki [28]: 1.5 nM

C=CCN1C[C@H](C(=O)N(CCCN(C)C)C(=O)NCC)C[C@@H]2c3cccc4[nH]cc(c34)C[C@H]21 [CABERGOLINE]
Ki (D(1A) dopamine receptor): 1.4 nM | EC50 (Dopamine receptor): 13 nM | CL renal [35]: 80 mL/min

CCN(CC)C(=O)N[C@H]1C=C2c3cccc4[nH]cc(c34)C[C@H]2N(C)C1 [LISURIDE]
Vd [36]: 1.73 L/kg | half-life [31]: 1.8 h

CCOC(=O)c1c(CSc2ccccc2)n(C)c2cc(Br)c(O)c(CN(C)C)c12 [UMIFENOVIR]
half-life [30]: 17 h | Cmax [37]: 415 ng/mL | Tmax [38]: 0.65 h

COC(=O)[C@@H]1[C@H]2C[C@H]3c4[nH]c5ccccc5c4CCN3C[C@@H]2CC[C@@H]1O [YOHIMBINE]
half-life [12]: < 1 h | half-life [39]: 3.7 min

Cc1[nH]c2ccccc2c1CCNCc1ccc(/C=C/C(=O)NO)cc1 [PANOBINOSTAT]
half-life [30]: 37 h | CL/F [14]: 2670 mL/min

CC[C@]12C=CCN3CC[C@@]4(c5cc([C@@]6(C(=O)OC)C[C@@H]7C[C@@H](C(C)(F)F)CN(Cc8c6[nH]c6ccccc86)C7)c(OC)cc5N(C)[C@H]4[C@@](O)(C(=O)OC)[C@@H]1OC(C)=O)[C@@H]32 [VINFLUNINE]
clearance [40]: 667 mL/min

O=C1NCCN1CCN1CCC(c2cn(-c3ccc(F)cc3)c3ccc(Cl)cc23)CC1 [SERTINDOLE]
bioavailability [11]: 75% | Vd [33]: 20 L/kg | half-life (Half life in human): 53 h

Reference: ChEMBL document CHEMBL5344475, “Indole-containing pharmaceuticals: targets, pharmacological activities, and SAR studies” (RSC Med Chem, 2024)
